Common to all, as to type: cell-based
In test [1] the test system is mouse IL-4 mRNA in primary LN cells. In words: Validation: mouse IL-4 mRNA by real-time PCR in LN cells of GA-immunized SJL/J mice (Example IV). The conditions noted are these: for IL-4 mRNA Fold Change: normalized to GAPDH; for induction of IL-4 mRNA: 20 μg/mL GA, 6 hours. As for the experimental part:
(§1) Three experiments were conducted using one batch of GA (Mylan GMA). The primary LN cells were stimulated by incubation with 6 concentrations (0.3 to 20 μg/mL) of the GA for 6 hours at 37° C. Total RNA was isolated from LN cells stimulated with GA or controls. cDNA was synthesized from the RNA and the mRNA levels of seven mouse cytokines, IL-2, IL-4, IL-5, IL-10, IL-13, interferon (IFN)-γ and tumor necrosis factor (TNF)-α, were quantitatively measured by a real-time PCR method.
(§2) Female SJL/J mice at 8-9 weeks of age were immunized by injection into four footpads using a 1 mL syringe with a 27-G, ½-inch needle. Each mouse received a total injection volume of 0.1 mL of GMA emulsified in CFA (about 10 μL into each of the front footpads and 40 μL into each of the hind footpads). Animals were immunized on Day 0. After injection, animals were placed back in their cages and housed ≤6 animals per cage.
(§3) Immunized animals were sacrificed by cervical dislocation on Day 10 following immunization. […] After centrifugation at about 200×g for 10 minutes at 4° C., the cell pellet was re-suspended in 40 mL of DCCM-1 medium for cell counting. A Trypan blue exclusion method was used to determine the cell density of viable cells in the suspension. After cell counting, the LN cells were suspended in enriched DCCM-1 medium at density of 7.5×10^6 cells/mL. LN cells (0.12 mL) were plated into each well of 96-well tissue culture plates.
(§4) Dilutions of GA (Mylan GMA) were prepared using enriched DCCM-1 medium as the diluent. GA dilutions (0.12 mL) were added in the assigned wells of 96-well tissue culture plates. The same volume of LN cells (0.12 mL) isolated from immunized animals was added to the assigned wells. A positive control and a negative control were always performed in the same assay by treating LN cells with 2.5 μg/mL ConA and 10 μg/mL MBP, respectively. The LN cells with mock stimulation protocols (enriched DCCM-1 medium) were used to monitor the background mRNA level of a cytokine. The plates were incubated at 37° C. in a humidified 5% CO2 incubator for 6 hr.
(§5) At the end of incubation time, culture medium from stimulated cells was removed by aspiration and the cells were lysed using Qiagen or Promega lysis buffer. The lysate was transferred to an RNeasy Mini column (Qiagen) or wells of the SV 96 Binding Plate (Promega) for RNA isolation and cDNA synthesis. All tested samples were run in triplicate.
(§6) The SV 96 Total RNA Isolation System (Promega; Cat. No. Z3505) was used for total RNA isolation. Assay procedures were carried out according to each manufacturer's protocol. RNA samples were stored at −70° C. until use. […] The assay procedure was carried out according to the manufacturer's protocol.
(§7) The plate was centrifuged at 2000 rpm for 2 minutes at 4° C. to spin down the contents and eliminate air bubbles. Samples were prepared and run in a 96-well plate using a Life Technologies Real-Time PCR system (previously Applied Biosystems; Model No. 7500) according to the manufacturer's recommendation. The mix for the reference gene was prepared in the same way using the reference gene primer.
(§8) A relative quantitation method was used to analyze changes in mIL-2, mIL-4, mIL-5, mIL-10, mIL-13, mIFN-γ and TNF-α expression in GA treated samples relative to the untreated control (Enriched DCCM-1 treated) samples using the following program:
(§9) Levels of mouse cytokine amplicons were normalized to an internal probe level (GAPDH) from the same samples. The following equations were used to calculate the relative increase in response to GA stimulation compared to the control sample (Enriched DCCM1 sample): […]
(In general: Real-time PCR tracks product formation cycle by cycle.)

Test [2] relates to mouse IL-13 mRNA in primary LN cells. The test is described as follows: Validation: mouse IL-13 mRNA by real-time PCR in LN cells of GA-immunized SJL/J mice (Example IV). The conditions noted are these: for IL-13 mRNA Fold Change: normalized to GAPDH; for induction of IL-13 mRNA: 20 μg/mL, 6 hours. As for the experimental part: as §1, §2, §3, §4, §5, §6, §7, §8, §9
Test [3] concerns mouse IL-2 mRNA in primary LN cells. The test is described as follows: Mouse IL-2 mRNA in LN cells of Copaxone-, GMA- or mannitol-immunized SJL/J mice stimulated with Copaxone and GMA lots, normalized to Actβ or GAPDH (Example V). As for the experimental part:
A real-time polymerase chain reaction method was used to measure the expression of cytokine mRNA in GA-stimulated LN cells from GA-immunized SJL/J mice. Normalization of expression with two different housekeeping genes, GAPDH and β-actin, was tested.
Each group consisted of six female SJL/J mice immunized by injection in all four footpads with a total dose of 250 μg of one lot of GA, or mannitol and no GA. Three Copaxone batches and three GMA batches were used to immunize the mice. CFA was included in both GA and mannitol immunizations. Ten days following immunization, LN cell samples isolated from the immunized mice were each stimulated with a concentration of a Copaxone lot and a GMA lot. A positive control of 2.5 μg/mL ConA treated LN cells and a negative control of 10 μg/mL MBP treated cells were included in each group.
Therefore, the Q-PCR analysis was repeated on the samples, measuring levels of IL-2, IL-4, IL-5, and IL-13, using both GAPDH and β-actin as reference gene.

Where [4] appears, read: SJL/J, different concentrations of GA vs unstimulated LN cells.

“Concanavalin A [ConA, reference compound]”: the “IL-4 mRNA Fold Change” value in test [1] (Experiment 1, 2.5 μg/mL) amounted to 148.6 fold; in test [1] (Experiment 2, 2.5 μg/mL), 21.0 fold; in test [1] (Experiment 3, 2.5 μg/mL), 53.8 fold. Moreover, the “IL-13 mRNA Fold Change” value in test [2] (Experiment 1, 2.5 μg/mL) is recorded as 40.9 fold; in test [2] (Experiment 2, 2.5 μg/mL), 32.4 fold; in test [2] (Experiment 3, 2.5 μg/mL), 50.9 fold. Besides, the “IL-2 mRNA Fold Change” value is given as 123.4 fold in test [3] (Group 3 (mice immunized with GA-M2 Mylan GMA), 2.5 μg/mL, normalized to Actβ); 149.4 fold in test [3] (Group 3 (mice immunized with GA-M2 Mylan GMA), 2.5 μg/mL, normalized to GAPDH); 105.0 fold in test [3] (Group 4 (mice immunized with GA-C2 Copaxone), 2.5 μg/mL, normalized to Actβ); 84.8 fold in test [3] (Group 4 (mice immunized with GA-C2 Copaxone), 2.5 μg/mL, normalized to GAPDH).
As to “L-glutamic acid polymer with L-alanine, L-lysine and L-tyrosine, acetate (salt) [GA]”, the “induction of IL-4 mRNA” value worked out at 41.3 fold in test [1] (SJL/J, Exp 1); 11.8 fold in test [1] (SJL/J, Exp 2); 27.6 fold in test [1] (SJL/J, Exp 3). Moreover, the “induction of IL-4 mRNA (in words)” value in test [1] (setting [4]) is on record as “robust induction”. The “induction of IL-13 mRNA” value in test [2] (SJL/J, Exp 1) is given as 17.6 fold; in test [2] (SJL/J, Exp 2) it was 21.3 fold; in test [2] (SJL/J, Exp 3), 33.9 fold. For the same molecule, in test [2] (setting [4]), the “induction of IL-13 mRNA (in words)” value is given as “robust induction”. Further, in test [3] (Copaxone: C/A, GMA: B/D, 5 μg/mL), the IL-2 cross-potency is 108%.

B1: MBP: myelin basic protein, a negative control (protein, UniProt P02686 1-304, looked up)
Myelin basic protein: MGNHAGKRELNAEKASTNSETNRGESEKKRNLGELSRTTSEDNEVFGEADANQNNGTSSQDTAVTDSKRTADPKNAWQDAHPADPGSRPHLIRLFSRDAPGREDNTFKDRPSESDELQTIQEDSAATSESLDVMASQKRPSQRHGSKYLATASTMDHARHGFLPRHRDTGILDSIGRFFGGDRGAPKRGSGKDSHHPARTAHYGSLPQKSHGRTQDENPVVHFFKNIVTPRTPPPSQGKGRGLSLSRFSWGAEGQRPGFGYGGRASDYKSAHKGFKGVDAQGTLSKIFKLGGRDSRSGSPMARR
For B1, the “IL-4 mRNA Fold Change” value in test [1] (Experiment 1, 10 μg/mL) came out at 2.7 fold; in test [1] (Experiment 2, 10 μg/mL) it was 0.8 fold; in test [1] (Experiment 3, 10 μg/mL), 1.1 fold. Also, the “IL-13 mRNA Fold Change” value in test [2] (Experiment 1, 10 μg/mL) is reported as 0.9 fold; in test [2] (Experiment 2, 10 μg/mL) it was 1.4 fold; in test [2] (Experiment 3, 10 μg/mL) it was 1.2 fold. Moreover, the “IL-13 mRNA expression level in response to MBP treatment” value in test [2] (SJL/J, MBP 10 μg/mL, all PCR runs) is reported as ≤ 2 fold. Moreover, the “IL-2 mRNA Fold Change” value in test [3] (Group 3 (mice immunized with GA-M2 Mylan GMA), 10 μg/mL, normalized to Actβ) is 1.2 fold; in test [3] (Group 3 (mice immunized with GA-M2 Mylan GMA), 10 μg/mL, normalized to GAPDH) it was 0.7 fold; in test [3] (Group 4 (mice immunized with GA-C2 Copaxone), 10 μg/mL, normalized to Actβ), 0.8 fold; in test [3] (Group 4 (mice immunized with GA-C2 Copaxone), 10 μg/mL, normalized to GAPDH), 1.3 fold.

The values above are taken from US10344330B2, “Glatiramer acetate response biomarker mRNA potency assay” (Mylan Inc., priority 2013, dated 2019).
